# From patent US10472341B2, “Bicyclic tetrahydrothiazepine derivatives useful for the treatment of neoplastic and/or infectious diseases” (APEIRON BIOLOGICS AG, priority 2015, dated 2019)
# Counter-ions that a name gives are not always drawn. Like-named read-outs stand apart in the source and are kept apart here.
# Assays:
# [1] = tested on: aCD3/aCD28-stimulated human PBMCs; experiment: Cytokine production in aCD3/aCD28 stimulated human PBMCs; format: cell-based; details: PBMC, 18 h
# Method in brief: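 Compound effects measured in buffy-coat PBMCs activated 18 h at 37° C by 1 μg/mL each of soluble anti-CD3 (OKT3) and anti-CD28 (28.2), 1e6 cells/mL. Cytokines in harvested supernatants read by MSD or HTRF.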
# [2] = tested on: aCD3/aCD28-stimulated human CD4+-T-cells; experiment: IL-2 production and activation markers in aCD3/aCD28 stimulated isolated human CD4+-T-cells; format: cell-based; details: IL-2 production at 3 μM compound
# Method in brief: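 CD4+ T cells isolated from buffy-coat PBMCs by microbeads were plated in Xvivo medium (1.5*10^5 cells/well) and stimulated with anti-CD3/28 mAbs plus compound. IL-2 measured by ELISA in supernatants at 24 h or 48 h; CD25 and proliferation by flow cytometry, CD69 at 24 h. Activity classes based on IL-2 at 3 μM compound.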
# [3] = enhancement of IFN-γ production, read-out: Activity Class IFN-γ
# [4] = enhancement of IL-2 production, read-out: Activity Class IL-2
SMILES,"EC50 [1, 3] [µM]","EC50 [1, 4] [µM]",Activity Class CD4+ [2]
"Cl.N[C@H]1CS(=O)(=O)c2cc(F)c(C(=O)N[C@H]3C[C@@H]3c3ccccc3)cc2N(Cc2ccc(Cl)cc2)C1=O [Example 98, (3R)-3-amino-5-[(4-chlorophenyl)methyl]-8-fluoro-1,1,4-trioxo-N-[(1S,2R)-2-phenylcyclopropyl]-2,3,4,5-tetrahydro-1λ^6,5-benzothiazepine-7-carboxamide hydrochloride]",< 1.58,< 1.58,A (IL-2 production at 3 μM compound concentration >10 ng/mL)
"CC1(NC(=O)c2cc3c(cc2F)S(=O)(=O)C[C@H](N)C(=O)N3Cc2ccc(Cl)cc2)CC1.Cl [Example 99, (3R)-3-amino-5-[(4-chlorophenyl)methyl]-8-fluoro-N-(1-methylcyclopropyl)-1,1,4-trioxo-2,3,4,5-tetrahydro-1λ^6,5-benzothiazepine-7-carboxamide hydrochloride]",1.58 to 5.01,1.58 to 5.01,B (IL-2 production at 3 μM compound concentration between 2-10 ng/mL)
"CC1(NC(=O)c2cc3c(cc2F)S(=O)(=O)C[C@H](N)C(=O)N3Cc2ccc(Cl)cc2)CCC1.Cl [Example 100, (3R)-3-amino-5-[(4-chlorophenyl)methyl]-8-fluoro-N-(1-methylcyclobutyl)-1,1,4-trioxo-2,3,4,5-tetrahydro-1λ^6,5-benzothiazepine-7-carboxamide hydrochloride]",< 1.58,< 1.58,A (IL-2 production at 3 μM compound concentration >10 ng/mL)
"CC1(C)CC1NC(=O)c1cc2c(cc1F)S(=O)(=O)C[C@H](N)C(=O)N2Cc1ccc(Cl)cc1.Cl (stereo partly drawn) [Example 101, (3R)-3-amino-5-[(4-chlorophenyl)methyl]-N-(2,2-dimethylcyclopropyl)-8-fluoro-1,1,4-trioxo-2,3,4,5-tetrahydro-1λ^6,5-benzothiazepine-7-carboxamide hydrochloride]",< 1.58,1.58 to 5.01,B (IL-2 production at 3 μM compound concentration between 2-10 ng/mL)
"Cl.N[C@H]1CS(=O)(=O)c2cc(F)c(C(=O)NC3CC(F)(F)C3)cc2N(Cc2ccc(Cl)cc2)C1=O [Example 102, (3R)-3-amino-5-[(4-chlorophenyl)methyl]-N-(3,3-difluorocyclobutyl)-8-fluoro-1,1,4-trioxo-2,3,4,5-tetrahydro-1λ^6,5-benzothiazepine-7-carboxamide hydrochloride]",< 1.58,< 1.58,A (IL-2 production at 3 μM compound concentration >10 ng/mL)
"Cl.N[C@H]1CS(=O)(=O)c2cc(F)c(C(=O)NCc3ccccc3)cc2N(Cc2ccc(Cl)cc2)C1=O [Example 103, (3R)-3-amino-N-benzyl-5-[(4-chlorophenyl)methyl]-8-fluoro-1,1,4-trioxo-2,3,4,5-tetrahydro-1λ^6,5-benzothiazepine-7-carboxamide hydrochloride]",< 1.58,< 1.58,A (IL-2 production at 3 μM compound concentration >10 ng/mL)
"CCCCCCCNC(=O)c1cc2c(cc1F)S(=O)(=O)C[C@H](N)C(=O)N2Cc1ccc(Cl)cc1.Cl [Example 104, (3R)-3-amino-5-[(4-chlorophenyl)methyl]-8-fluoro-N-heptyl-1,1,4-trioxo-2,3,4,5-tetrahydro-1λ^6,5-benzothiazepine-7-carboxamide hydrochloride]",< 1.58,< 1.58,A (IL-2 production at 3 μM compound concentration >10 ng/mL)
"C[C@@H]1[C@H](N)C(=O)N(Cc2ccc(Cl)cc2)c2cc(C(=O)NC3CC3(F)F)ccc2S1(=O)=O.Cl (stereo partly drawn) [Example 108, (2R,3R)-3-amino-5-[(4-chlorophenyl)methyl]-N-(2,2-difluorocyclopropyl)-2-methyl-1,1,4-trioxo-2,3,4,5-tetrahydro-1λ^6,5-benzothiazepine-7-carboxamide hydrochloride]",> 5.01,> 5.01,C (IL-2 production at 3 μM compound concentration between 2-fold increase as compared to mean IL-2 production of stimulated cells in the absence of compounds and <2 ng/mL)
"CCCCCCCCCCCCCCCCNC(=O)c1cc2c(cc1F)S(=O)(=O)C[C@H](N)C(=O)N2Cc1ccc(Cl)cc1.Cl [Example 109, (3R)-3-amino-5-[(4-chlorophenyl)methyl]-8-fluoro-N-hexadecyl-1,1,4-trioxo-2,3,4,5-tetrahydro-1λ^6,5-benzothiazepine-7-carboxamide hydrochloride]",< 1.58,< 1.58,A (IL-2 production at 3 μM compound concentration >10 ng/mL)
"Cl.N[C@H]1CS(=O)(=O)c2cc(F)c(C(=O)NCC3CC3)cc2N(Cc2ccc(Cl)cc2)C1=O [Example 110, (3R)-3-amino-5-[(4-chlorophenyl)methyl]-N-(cyclopropylmethyl)-8-fluoro-1,1,4-trioxo-2,3,4,5-tetrahydro-1λ^6,5-benzothiazepine-7-carboxamide hydrochloride]",< 1.58,< 1.58,A (IL-2 production at 3 μM compound concentration >10 ng/mL)
"C[C@@H]1[C@H](N)C(=O)N(Cc2ccc(Cl)cc2)c2cc(C(=O)NCCCC(F)(F)F)ccc2S1(=O)=O.Cl [Example 111, (2R,3R)-3-amino-5-[(4-chlorophenyl)methyl]-2-methyl-1,1,4-trioxo-N-(4,4,4-trifluorobutyl)-2,3,4,5-tetrahydro-1λ^6,5-benzothiazepine-7-carboxamide hydrochloride]",1.58 to 5.01,1.58 to 5.01,B (IL-2 production at 3 μM compound concentration between 2-10 ng/mL)
"Cl.N[C@H]1CSc2cc(F)c(C(=O)NCc3ccc(F)cc3)cc2N(Cc2nnc(C3CC3)s2)C1=O [Example 113, (3R)-3-amino-5-[(5-cyclopropyl-1,3,4-thiadiazol-2-yl)methyl]-8-fluoro-N-[(4-fluorophenyl)methyl]-4-oxo-2,3,4,5-tetrahydro-1,5-benzothiazepine-7-carboxamide hydrochloride]",1.58 to 5.01,> 5.01,C (IL-2 production at 3 μM compound concentration between 2-fold increase as compared to mean IL-2 production of stimulated cells in the absence of compounds and <2 ng/mL)
"CCCCNC(=O)c1cc2c(cc1N(C)C)S(=O)(=O)C[C@H](N)C(=O)N2Cc1ccc(Cl)cc1 [Example 114, (3R)-3-amino-N-butyl-5-[(4-chlorophenyl)methyl]-8-(dimethylamino)-1,1,4-trioxo-2,3,4,5-tetrahydro-1 λ^6,5-benzothiazepine-7-carboxamide hydrochloride]",1.58 to 5.01,> 5.01,C (IL-2 production at 3 μM compound concentration between 2-fold increase as compared to mean IL-2 production of stimulated cells in the absence of compounds and <2 ng/mL)
"CCCCNC(=O)c1cc2c(cn1)S(=O)(=O)C[C@H](N)C(=O)N2Cc1ccc(Cl)cc1 [Example 183, (3R)-3-amino-N-butyl-1-[(4-chlorophenyl)methyl]-2,5,5-trioxo-1H,2H,3H,4H-5λ^6-pyrido[3,4-b][1,4]thiazepine-8-carboxamide hydrochloride]",> 5.01,> 5.01,C (IL-2 production at 3 μM compound concentration between 2-fold increase as compared to mean IL-2 production of stimulated cells in the absence of compounds and <2 ng/mL)
